Results taken from PubChem BioAssay AID179 (DTP/NCI, 2004).
pEC50, pIC50: −log10 of the molar value. “And” between values parts separate entries of the source, which are not always exact repeats. Equal values may be shown once. The source made the active and inactive calls.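 Rule for the calls: active = compounds giving half or more protection of infected cells from virus-caused growth loss, again on retest; inactive = the rest.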 Where a SMILES comes first, the peptide text is derived from it. [ ]: non-standard residue; d: D form. pGlu = O=C1CC[CH](C(=O)O)N1

Test system: CEM cells HIV-1 protection, formazan growth assay
Assay: NCI AIDS Antiviral Assay
Conditions: for pIC50: measured here: growth of uninfected CEM cells
Summary of the method: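 Protection of CEM cells against HIV-1 measured as cell growth via soluble formazan read-out, with five concentrations tested on both infected and uninfected cells; failure to protect may reflect toxicity.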

In the case of O=C(Nc1cc(Cl)c(Cl)cc1Cl)C(=O)C(C(=O)c1ccc(Cl)c(Cl)c1)C1OC(=O)c2ccccc21 (stereo not given), the pEC50 was < 4.34 and the pIC50 was 4.65.
For COC(=O)c1ccccc1/C=C1\Cc2ccc3ccccc3c2C1C (stereo not given), the pEC50 was < 3.70 and the pIC50 was < 3.70.
For C1SCSCS1, the pEC50 was < 3.70 and the pIC50 was < 3.70.
For COc1cc(-c2nc(N)c(C#N)c3c2CCS(=O)(=O)c2ccc(C)cc2-3)cc(OC)c1OC, the pEC50 was < 3.70 and the pIC50 was < 3.70.
With CN(CC#N)C(=O)Cc1ccc([N+](=O)[O-])cc1 the pEC50 was < 3.70 and the pIC50 was < 3.70.
For CNc1ncnc2c1cnn2CCCCO, the pEC50 was < 3.70 and the pIC50 was < 3.70.
In the case of CCCCCn1cnc2c(=S)nc(N)[nH]c21, the pEC50 was < 3.70 and the pIC50 was 3.71.
With CCCCc1ccc(Nc2nc3c(ncn3COCCO)c(=O)[nH]2)cc1 the pEC50 was < 3.70 and the pIC50 was < 3.70.
In the case of C=CC1(C)CCC2C(=CCC3C2(C)CC(O)C(O)C3(C)COC2OC(C(=O)O)C(O)C(O)C2O)C1 (stereo not given) (tested in a mixture with another compound), the pEC50 was < 4.00 and the pIC50 was < 4.00.
Cc1nsnc1CCO was tested, and the pEC50 was < 2.76 and the pIC50 was < 2.76.
With CC(C)(C)c1ccc(OC2CCO2)cc1 (stereo not given) the pEC50 was < 4.46 and the pIC50 was < 4.46.
CC1OC(c2ccc3c(OCc4ccccc4)cccc3c2O)CC(OCc2ccccc2)[C@H]1OCc1ccccc1 (stereo not given in full) was tested, and the pEC50 was < 3.70 and the pIC50 was < 3.70.
O=S(=O)(O)c1cc2cc(S(=O)(=O)O)c(O)cc2cc1O was tested, and the outcome was “inactive”.
In the case of O=C1C(Cl)N(c2ccccc2Cl)C1c1c[nH]c2ccccc12 (stereo not given), the pEC50 was < 3.40 and the pIC50 was < 3.70.
In the case of CC(=S)N=Cc1c(O)cc(C)oc1=O, the pEC50 was < 3.70 and the pIC50 was < 3.70.
CCOC(=O)[C@@H]1ON2O[C@@H](OC3CCCCC3c3ccccc3)C[C@H]3OC(=O)[C@@H]1C32 (stereo not given in full) was tested, and the pEC50 was < 3.70 and the pIC50 was < 3.70.
COC(=O)Nc1nc2ccc(C(=O)c3ccc[nH]3)cc2[nH]1 was tested, and the pEC50 was < 3.70 and the pIC50 was 6.01 and 5.78.
In the case of c1ccc(-c2csc3n4ccccc4c[n+]23)cc1, the outcome was “inactive”.
In the case of COc1cc2c(c3oc(=O)cc(-c4ccccc4)c13)C(=O)[C@H](C)[C@@H](C)O2, the pEC50 was < 3.70 and the pIC50 was < 3.70.
For CCN1C[C@]2(C)CC[C@H](OC)C34C5C[C@@H]6[C@@H](OC)C[C@@](OC)(C5[C@H]6OCc5ccccc5)C(C13)[C@H](OC(C)=O)[C@@H]42 (stereo not given in full), the pEC50 was < 3.70 and the pIC50 was 3.98.
For O=[N+]([O-])c1ccc(C2Nc3cc(Cl)c(Cl)cc3S(=O)(=O)N2O)cc1 (stereo not given), the pEC50 was < 4.03 and the pIC50 was 4.19.
O=C(CCC(=O)Nc1cccc(Cl)c1)CC(=O)c1ccc(Cl)cc1 was tested, and the outcome was “inactive”.
With C=C1c2nc3ccccc3n2C=C(c2ccc(OC)cc2)N1c1ccc(OC)cc1 the pEC50 was < 3.70 and the pIC50 was 4.48.
For FC1OC2OC1C(OCc1ccccc1)C(OCc1ccccc1)C2OCc1ccccc1 (stereo not given), the pEC50 was < 5.22 and the pIC50 was < 5.22.
For CSc1nc2c(=O)oc(-c3ccc([N+](=O)[O-])cc3)nc2s1, the pEC50 was < 3.82 and the pIC50 was 5.27.
For N#Cc1ncn(-c2ccccc2)c1N, the pEC50 was < 3.70 and the pIC50 was < 3.70.
For CCN(CC)CCNc1ccc2ncn3c4c(OC)ccc(=O)c4c(O)c1c23, the pEC50 was < 4.30 and the pIC50 was 7.66.
With O=C1CSC2=NCC3(NN12)c1ccccc1-c1ccccc13 the pEC50 was < 3.70 and the pIC50 was < 4.00.
For CC1=C(c2cc(C(=O)Nc3ccc(Cl)c(Cl)c3)nc(N)n2)Sc2ccccc2N1, the pEC50 was < 4.09 and the pIC50 was < 4.09.
In the case of Cc1nc2cncnc2n(CCN2CCOCC2)c1=O, the pEC50 was < 3.70 and the pIC50 was 4.33.
In the case of COc1ccc2nc(/C(N)=C\C#N)ccc2c1, the pEC50 was < 3.70 and the pIC50 was 4.38.
CN(O)C(=O)c1ccc(OCc2cccc(Cl)c2)cc1 was tested, and the pEC50 was < 3.70 and the pIC50 was 4.90.
For Cc1cc(NS(=O)(=O)c2ccc(N=c3c4ccccc4n(-c4ccccc4)c4ccccc34)cc2)no1, the outcome was “inactive”.
O=c1cc[nH]c2c1ccc1[nH]ccc(=O)c12 was tested, and the pEC50 was < 3.70 and the pIC50 was < 3.70.
In the case of O=C(Nc1ccc(Cl)cc1C(F)(F)F)C(=O)C1CCCS1(=O)=O (stereo not given), the outcome was “inactive”.
In the case of CCOC(=O)c1ccc(CS(=O)(=O)c2ccccc2)cc1, the pEC50 was < 4.63 and the pIC50 was < 4.63.
With C1=C\SS/C=C\SS/1 the pEC50 was < 3.70 and the pIC50 was 4.64.
O=c1ccnc2c1ccc1[nH]cccc12 was tested, and the pEC50 was < 2.90 and the pIC50 was 4.19.
CC(=O)Nc1ccc(/C=C2\SC(=S)N(/C=C(/C#N)S(=O)(=O)c3ccc(C)cc3)C2=O)cc1 was tested, and the pEC50 was < 3.70 and the pIC50 was 4.13.
OC1C2[C@@H](O)CCN2CC[C@H]1O (stereo not given in full) was tested, and the pEC50 was < 3.12 and the pIC50 was < 3.12.
CC(NC(=O)C1CCC(=O)N1)C(=O)N1CCCC1C(N)=O (stereo not drawn) ([pGlu]-Ala-Pro-NH2; configuration not given here) was tested, and the pEC50 was < 3.70 and the pIC50 was < 3.70.
CCOC(=O)NN(C(=O)OCC)C(=C(C1CCCCC1)N1CCOCC1)N(NC(=O)OCC)C(=O)OCC showed a pEC50 of 3.90 and a pIC50 of 3.77.
In the case of CC(C)(C)OC(=O)NC(Cc1ccccc1)NC(=O)NC(=O)OCc1ccccc1 (stereo not given), the pEC50 was < 3.70 and the pIC50 was 3.95.
In the case of O=C1CSC(C(N=Nc2ccc(Cl)cc2)c2nc3ccccc3[nH]2)=N1 (stereo not given), the pEC50 was < 5.71 and the pIC50 was < 5.71.
CCCCCCCCS(=O)(=O)c1ccc(O)c(C(=O)Nc2ccc(C(F)(F)F)cc2)c1 was tested, and the pEC50 was < 4.39 and the pIC50 was 5.80.
[N-]=[N+]=C1N=CN=C1c1ncn[nH]1 was tested, and the pEC50 was < 3.70 and the pIC50 was 5.39.
For O=C1CCCC(=O)N1n1c(Cc2ccccc2)n[nH]c1=O, the pEC50 was < 3.70 and the pIC50 was < 3.70.
COc1ccc(NC(=O)/C(Cc2nc3ccccc3[nH]c2=O)=N\O)c(OC)c1 was tested, and the outcome was “inactive”.
With Cc1cc(-c2[nH]c(C(=O)O)cc2I)on1 the pEC50 was < 3.70 and the pIC50 was < 3.70.
With CC1C(=O)CC(c2cccs2)N(N=O)C1c1cccs1 (stereo not given) the pEC50 was < 3.93 and the pIC50 was 4.11.
In the case of CCC12C=C(C(=O)OC)N3c4ccccc4C4CCN(CCC1)C2C43 (stereo not given), the outcome was “inactive”.
O=C(O)c1cc(O)cc(O)c1CNc1ccc(/C=C\c2ccc(NCc3c(O)cc(O)cc3C(=O)O)cc2S(=O)(=O)O)c(S(=O)(=O)O)c1 was tested, and the pEC50 was < 4.06 and the pIC50 was < 4.06.
In the case of CN(C)CCCN1c2ccccc2Sc2ccc(Cl)cc21, the pEC50 was < 3.70 and the pIC50 was 4.99.
In the case of CN1N=C(c2ccncc2)OC1c1ccc(Cl)c(Cl)c1 (stereo not given), the pEC50 was < 3.70 and the pIC50 was 4.07.
CC1=C(C)C(=O)C(C2=C(C3=CC(=O)C(C)=C(C)C3=O)C(=O)C(C)=C(C)C2=O)=CC1=O was tested, and the pEC50 was < 4.70 and the pIC50 was 5.99.
For Cc1cc(Cl)ccc1N=C1NC(=O)C(CC(=O)Nc2cccc(C)c2C)S1 (stereo not given), the pEC50 was < 3.63 and the pIC50 was 4.18.
For CCN(CC)c1cc2oc(=O)cc(C)c2cc1[N+](=O)[O-], the pEC50 was < 4.02 and the pIC50 was 4.39.
With O=C1CCC2C(O)c3cc4c(cc3C(c3ccc5c(c3)OCO5)N12)OCO4 (stereo not given) the pEC50 was < 3.70 and the pIC50 was < 3.70.
With O=C1Nc2cc(F)ccc2C1=O the pEC50 was < 2.82 and the pIC50 was 3.60.
C=CCN1CCC(c2cc(C(=O)OCC)[nH]c2-c2cc(C)no2)C1=O (stereo not given) was tested, and the pEC50 was < 3.70 and the pIC50 was < 3.70.
For CC(=O)CC(=O)NC=O, the pEC50 was < 3.58 and the pIC50 was < 3.58.
In the case of CCN(c1ccccc1)[C@H]1C(=O)N(c2ccc([N+](=O)[O-])cc2)[C@H]1c1ccc(OC)cc1, the outcome was “inactive”.
With CC(=O)Oc1cccc2c1C(=O)C1CC(O)C(O)C3OC(C)(C)OC2(C)C13 (stereo not given) the pEC50 was < 3.33 and the pIC50 was < 3.33.
OC1CC=C2CCN3Cc4cc5c(cc4C1C23)OCO5 (stereo not given) was tested, and the outcome was “inactive”.
For c1ccc2c(c1)nc1n2CSC1, the outcome was “inactive”.
